{"source": "patent US12109266B2", "about": "“Modulating gabarap to modulate immunogenic cell death” (Dana-Farber Cancer Institute, Inc., priority 2020, dated 2024)", "key": {"[1]": {"system": "UPR transducer PERK pathway", "assay": "Western blot of UPR/PERK pathway", "assay_type": "cell-based", "settings": "AMO1 and 5TGM1 cells", "experimental": "Cell lysis was performed in RIPA buffer (Boston Bio Products) supplemented with Halt™ protease and phosphatase inhibitor cocktail (Thermo Fisher Scientific). Immunoblot analysis was performed to evaluate expression levels of total protein and phospho-specific isoforms. SDS-PAGE was performed on NuPage™ Bis-Tris gels (ThermoFisher Scientific) using MOPS or MES running buffer. Gels were dry transferred onto 0.45 μm nitrocellulose membranes using the iBlot® Dry Blotting System (ThermoFisher Scientific). The following antibodies (Abs) were used and purchased from Cell Signaling Technology: CRT (Cat. #12238) and GABARAP (Cat. #13733). GAPDH (Cat. #2118) was used as loading controls.\nCell lysis was performed in RIPA buffer (Boston Bio Products) supplemented with Halt protease and phosphatase inhibitor cocktail (ThermoFisher Scientific). SDS-PAGE was performed on NuPage Bis-Tris gels (ThermoFisher Scientific) using MOPS or MES running buffer. Gels were dry transferred onto 0.45 μm nitrocellulose membranes using the iBlot® Dry Blotting System (ThermoFisher Scientific). The following Abs were purchased from Cell Signaling Technology: EIF2A (#5324), p-EIF2A (#3398), ATF4 (#11815), CHOP (2895), CALR (#12238), cGAS (#15102), TBK1 (#3504), pTBK1 (#5483), pIRF3 (#29047), STING (#13647). GAPDH (#2118) and B-ACTIN (#4970) were used as loading controls."}, "[2]": {"system": "5TGM1 cells", "assay": "In vivo rechallenge of viable 5TGM1 cells in BTZ-treated mice", "set-up": "species or system mouse", "experimental": "C57BL/KaLwRijHsd mice bearing 5TGM1 WT tumors were treated with BTZ as above. 2 weeks after observation of tumor regression, treated (n=5) as well as naïve mice (n=5), were rechallenged with viable 1×10^6 5TGM1 WT cells, and tumor growth was monitored over time. In a parallel experiment, spleens were harvested 2 weeks after tumor rechallenge from both groups to test T cell specific reactivity against multiple myeloma cell by ELISPOT assay (Translational Immunogenomics Laboratory, DFCI)."}, "[3]": {"system": "5TGM1 tumors", "assay": "IHC CD3 staining of tumors", "assay_type": "in vivo, mouse", "settings": "tumors retrieved after one administration of the drugs", "experimental": "NOD/SCID and C57BL/KaLwRijHsd mice were subcutaneously (sc) injected with 1×10^6 5TGM1 either WT or Calr^KO cells in PBS. When tumor became measurable, mice were randomized to receive either PBS or BTZ administered intra peritoneally (i.p.) 0.5 mg/kg twice/week for 2 weeks. Tumor sizes were measured as previously described (46), and mice were sacrificed when tumors reached 2 cm in diameter or ulceration or major compromise in quality of life. A parallel experiment was performed to allow for tumor harvesting after two injections ip of BTZ for RNA-seq analysis, as detailed below. For BTZ and STING agonist combination studies, C57BL/KaLwRijHsd (n=5/group) and SCID/NOD (n=6/group) mice bearing 5TGM1 WT and C57BL/KaLwRijHsd mice (n=5/group) bearing 5TGM1 Sting^KO tumors were randomized to receive: PBS, BTZ (0.375 mg/kg twice a week for 2 weeks, i.p.), ADU-S100 (100 μg) administered in the peritumoral area (day 1 and 2), or a combination. Tumor sizes were measured as described above. A parallel experiment in C57BL/KaLwRijHsd mice was performed to allow for tumor harvesting after one administration of either BTZ or ADU-S100. Tumors were fixed in 10% formalin for 24 h, and then maintained in 70% ethanol prior to paraffin embedding and processing for IHC to detect CD3 (#nb600 Ab, Novus Bio)."}, "[4]": {"system": "CALR", "assay": "Mass spectrometry after CALR immunoprecipitation", "assay_type": "cell-based, human", "settings": "AMO1 WT vs GABARAP^KO, with or without BTZ", "text": "To test this hypothesis, the CALR network was explored at the protein level by performing mass spectrometry (MS) after CALR immunoprecipitation (IP) in WT or GABARAP^KO AMO1 cells in the presence or absence of BTZ. […] CALR trap in the mitochondria has been recently reported in tumors with high stanniocalcin 1 (STC1), a newly recognized phagocytosis checkpoint driving tumor immune resistance (Lin et al. (2021) Cancer Cell. April 12; 39(4):480-493.e6. doi: 10.1016/j.ccell.2020.12.023. Epub 2021 Jan. 28. PMID: 33513345; PMCID: PMC8044011). […] A WB analysis of FLAG-immunoprecipitated proteins in […] cells expressing FLAG-tagged GABARAP was performed to analyze GABARAP interacting partners. […] These findings identify a molecular mechanism whereby GABARAP prevents STC1 binding to CALR; conversely, in low-GABARAP cells STC1 binding to CALR induces trapping of CALR in the mitochondria (FIG. 34)."}}, "note": "Entries after “also recorded” stand apart in the source; their conditions may differ."}
{"smiles": "CC(C)C[C@H](NC(=O)[C@H](Cc1ccccc1)NC(=O)c1cnccn1)B(O)O", "note": "[BTZ, bortezomib]", "values": [{"measurement": "PERK pathway activation (p-eIF2-alpha, CHOP, ATF4)", "setting": "[1]", "result": "activated the UPR transducer PERK pathway"}, {"measurement": "mice alive at the end of observation", "setting": "[2]; day 30 after rechallenge", "result": 100, "unit": "%"}, {"measurement": "tumor development after rechallenge", "setting": "[2]; live 5TGM1 WT injected two weeks after BTZ-induced tumor regression", "result": "did not result in tumor development"}, {"measurement": "CD3+ T cell infiltration within tumors (IHC)", "setting": "[3]", "result": "increased CD3+ T cell infiltration within tumors"}, {"measurement": "binding of CALR to mitochondrial proteins", "setting": "[4]", "result": "increases the binding of CALR to mitochondrial proteins in AMO1 GABARAP^KO cells and not WT cells; also recorded: increase of the binding of CALR to mitochondrial proteins only in AMO1 GABARAP^KO cells; also recorded: CALR localizes to the mitochondria after treatment with BTZ in GABARAP KO cells"}]}
